Assay results taken from ChEMBL document CHEMBL6178016, “Design, Synthesis, and Biological Evaluation of New PDE4 Inhibitors for the Treatment of Pressure Ulcers” (J Med Chem, 2025).
Active and inactive are the calls of the source. The rule behind the calls is not given here.

Tests used:
[1] = Acute toxicity in male Kunming mouse assessed as effect on pathological changes in liver at 500 to 4000 mg/kg measured after 14 days by H and E staining based analysis; assay type: organism-based; settings: in vivo, 336 h, dose 500-4000 mg/kg, time 14 day
[2] = target: T1, 3',5'-cyclic-AMP phosphodiesterase 4D (Homo sapiens, UniProt Q08499); experiment: Inhibition of PDE4D (unknown origin)
T1 sequence (Q08499 whole entry): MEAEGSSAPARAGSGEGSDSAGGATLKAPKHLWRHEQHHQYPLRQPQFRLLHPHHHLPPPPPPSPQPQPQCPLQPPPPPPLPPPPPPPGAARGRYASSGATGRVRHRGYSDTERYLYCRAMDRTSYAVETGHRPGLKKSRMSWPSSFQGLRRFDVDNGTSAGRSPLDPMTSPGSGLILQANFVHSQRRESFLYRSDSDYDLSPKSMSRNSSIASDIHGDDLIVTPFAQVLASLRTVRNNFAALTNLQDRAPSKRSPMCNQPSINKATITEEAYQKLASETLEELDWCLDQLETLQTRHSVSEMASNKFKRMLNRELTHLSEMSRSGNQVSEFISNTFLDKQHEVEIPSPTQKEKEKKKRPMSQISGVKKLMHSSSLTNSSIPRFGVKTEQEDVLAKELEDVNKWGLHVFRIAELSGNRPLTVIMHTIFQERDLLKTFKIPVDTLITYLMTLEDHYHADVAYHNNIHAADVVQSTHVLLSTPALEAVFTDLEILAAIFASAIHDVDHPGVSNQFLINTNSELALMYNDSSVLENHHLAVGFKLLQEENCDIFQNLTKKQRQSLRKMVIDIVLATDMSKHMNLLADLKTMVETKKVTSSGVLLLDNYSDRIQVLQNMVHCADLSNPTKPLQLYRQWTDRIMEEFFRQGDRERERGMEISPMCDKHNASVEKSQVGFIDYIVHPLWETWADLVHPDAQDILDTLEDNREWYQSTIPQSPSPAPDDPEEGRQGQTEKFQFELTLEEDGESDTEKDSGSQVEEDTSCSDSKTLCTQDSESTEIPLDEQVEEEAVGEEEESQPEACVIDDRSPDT

[3] = target: Dual 3',5'-cyclic-AMP and -GMP phosphodiesterase 11A (Homo sapiens, UniProt Q9HCR9); experiment: Inhibition of PDE11A (unknown origin)
Sequence of Dual 3',5'-cyclic-AMP and -GMP phosphodiesterase 11A (Q9HCR9 whole entry): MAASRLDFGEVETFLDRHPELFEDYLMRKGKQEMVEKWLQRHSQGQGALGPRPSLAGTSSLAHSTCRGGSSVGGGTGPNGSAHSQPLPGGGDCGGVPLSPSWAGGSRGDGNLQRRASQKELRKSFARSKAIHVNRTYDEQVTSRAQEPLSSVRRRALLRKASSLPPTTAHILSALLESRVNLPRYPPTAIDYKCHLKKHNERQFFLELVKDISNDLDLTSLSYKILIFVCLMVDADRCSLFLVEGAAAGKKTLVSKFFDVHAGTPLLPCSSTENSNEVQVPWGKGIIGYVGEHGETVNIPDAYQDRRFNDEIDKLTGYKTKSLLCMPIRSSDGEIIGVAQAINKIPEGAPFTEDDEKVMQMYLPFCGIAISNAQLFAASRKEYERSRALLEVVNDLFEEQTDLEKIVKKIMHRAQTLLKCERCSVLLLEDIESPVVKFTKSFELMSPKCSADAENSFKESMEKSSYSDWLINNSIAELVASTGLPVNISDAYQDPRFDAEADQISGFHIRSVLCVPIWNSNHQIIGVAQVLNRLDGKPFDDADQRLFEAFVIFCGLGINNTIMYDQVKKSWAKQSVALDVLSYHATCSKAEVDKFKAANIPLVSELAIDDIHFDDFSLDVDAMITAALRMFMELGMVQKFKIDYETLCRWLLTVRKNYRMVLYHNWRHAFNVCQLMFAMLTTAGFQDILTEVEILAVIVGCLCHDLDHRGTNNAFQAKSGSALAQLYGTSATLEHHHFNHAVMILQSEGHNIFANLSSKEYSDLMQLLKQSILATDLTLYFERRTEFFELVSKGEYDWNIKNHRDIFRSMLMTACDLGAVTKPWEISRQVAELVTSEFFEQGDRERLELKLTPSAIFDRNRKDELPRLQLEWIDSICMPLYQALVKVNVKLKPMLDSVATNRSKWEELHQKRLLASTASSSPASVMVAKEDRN

[4] = Acute toxicity in female Kunming mouse assessed as effect on pathological changes in heart at 500 to 4000 mg/kg measured after 14 days by H and E staining based analysis; assay type: organism-based; settings: in vivo, 336 h, dose 500-4000 mg/kg, time 14 day
[5] = target: High affinity 3',5'-cyclic-AMP phosphodiesterase 7A (Homo sapiens, UniProt Q13946); experiment: Inhibition of PDE7A (unknown origin)
Sequence of High affinity 3',5'-cyclic-AMP phosphodiesterase 7A (Q13946 whole entry): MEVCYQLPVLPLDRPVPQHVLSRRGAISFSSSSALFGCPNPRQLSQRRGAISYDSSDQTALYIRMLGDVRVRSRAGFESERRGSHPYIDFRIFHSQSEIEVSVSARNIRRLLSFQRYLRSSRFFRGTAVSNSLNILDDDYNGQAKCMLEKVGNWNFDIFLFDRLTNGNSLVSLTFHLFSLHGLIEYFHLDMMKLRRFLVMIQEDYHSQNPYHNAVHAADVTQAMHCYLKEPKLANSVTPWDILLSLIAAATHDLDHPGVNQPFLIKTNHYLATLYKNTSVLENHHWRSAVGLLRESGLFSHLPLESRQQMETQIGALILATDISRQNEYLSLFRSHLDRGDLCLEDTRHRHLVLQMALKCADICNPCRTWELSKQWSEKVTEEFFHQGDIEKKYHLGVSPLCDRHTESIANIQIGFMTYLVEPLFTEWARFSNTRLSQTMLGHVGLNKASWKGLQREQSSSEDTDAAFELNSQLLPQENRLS

[6] = test system: Rattus norvegicus; experiment: Antiinflammatory activity against male Sprague-Dawley rat pressure ulcer model assessed as wound healing rate at 0.625% administration as ointment measured after 7 days (reference value: 70%); assay type: functional; settings: time 7 day
[7] = Half life in Sprague-Dawley rat at 5 mg/kg, iv; assay type: ADME, organism-based; settings: in vivo
[8] = test system: RAW264.7; experiment: Cytotoxicity against mouse RAW264.7 cells at 10 uM measured after 24 hrs by CCK-8 method; assay type: functional, cell-based
[9] = test system: Rattus norvegicus; experiment: Antiinflammatory activity against male Sprague-Dawley rat pressure ulcer model assessed as appearance of orderly arranged cells at 0.625 to 2.5% administered as ointment by H and E staining based analysis; assay type: functional, organism-based
[10] = Tmax in Sprague-Dawley rat at 10 mg/kg, po; assay type: ADME, organism-based; settings: in vivo
[11] = AUC (0 to infinity) in Sprague-Dawley rat at 10 mg/kg, po; assay type: ADME, organism-based; settings: in vivo
[12] = Acute toxicity in male Kunming mouse assessed as effect on weight at 500 to 4000 mg/kg measured after 14 days; assay type: organism-based; settings: in vivo, 336 h, dose 500-4000 mg/kg, time 14 day
[13] = test system: Rattus norvegicus; experiment: Antiinflammatory activity against male Sprague-Dawley rat pressure ulcer model assessed as appearance of thinner epidermal layer at 0.625 to 2.5% administered as ointment by Masson staining based analysis; assay type: functional, organism-based
[14] = target: Cytochrome P450 2D6 (Homo sapiens, UniProt P10635); experiment: Inhibition of human CYP2D6; assay type: ADME
Sequence of Cytochrome P450 2D6 (P10635 whole entry): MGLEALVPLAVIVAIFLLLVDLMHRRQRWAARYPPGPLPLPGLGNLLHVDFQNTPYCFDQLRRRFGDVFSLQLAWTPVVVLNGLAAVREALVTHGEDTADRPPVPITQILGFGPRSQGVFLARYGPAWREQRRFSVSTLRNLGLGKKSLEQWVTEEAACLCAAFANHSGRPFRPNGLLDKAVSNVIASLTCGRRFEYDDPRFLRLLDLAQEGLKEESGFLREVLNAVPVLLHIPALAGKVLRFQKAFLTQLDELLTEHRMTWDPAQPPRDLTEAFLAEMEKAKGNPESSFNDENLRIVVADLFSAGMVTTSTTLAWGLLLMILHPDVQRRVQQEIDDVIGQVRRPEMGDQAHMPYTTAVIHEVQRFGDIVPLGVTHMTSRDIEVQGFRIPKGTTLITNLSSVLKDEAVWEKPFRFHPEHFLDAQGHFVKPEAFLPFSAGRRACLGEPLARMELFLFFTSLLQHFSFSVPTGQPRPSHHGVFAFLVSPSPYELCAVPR

[15] = target: Cytochrome P450 2C9 (Homo sapiens, UniProt P11712); experiment: Inhibition of human CYP2C9; assay type: ADME
Sequence of Cytochrome P450 2C9 (P11712 whole entry): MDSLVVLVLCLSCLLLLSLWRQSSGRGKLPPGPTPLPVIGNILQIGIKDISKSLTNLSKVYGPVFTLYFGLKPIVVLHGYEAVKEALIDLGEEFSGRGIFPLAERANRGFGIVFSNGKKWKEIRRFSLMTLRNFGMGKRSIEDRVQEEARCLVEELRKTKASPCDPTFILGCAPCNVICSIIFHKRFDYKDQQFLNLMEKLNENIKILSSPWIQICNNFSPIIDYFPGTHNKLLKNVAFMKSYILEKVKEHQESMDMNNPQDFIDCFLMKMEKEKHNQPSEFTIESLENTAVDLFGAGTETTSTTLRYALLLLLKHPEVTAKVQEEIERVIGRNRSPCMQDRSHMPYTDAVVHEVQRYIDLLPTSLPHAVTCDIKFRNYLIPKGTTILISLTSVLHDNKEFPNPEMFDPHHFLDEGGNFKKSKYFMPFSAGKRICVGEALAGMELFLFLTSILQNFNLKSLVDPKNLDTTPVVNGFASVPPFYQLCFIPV

[16] = AUC (0 to t) in Sprague-Dawley rat at 10 mg/kg, po; assay type: ADME, organism-based; settings: in vivo
[17] = organism: Rattus norvegicus; experiment: Antiinflammatory activity against male Sprague-Dawley rat pressure ulcer model assessed as increase in CREB phosphorylation expression by immunohistochemical staining based analysis; assay type: functional, organism-based
[18] = Apparent volume of distribution in Sprague-Dawley rat at 5 mg/kg, iv; assay type: ADME, organism-based; settings: in vivo, read-out: Vz
[19] = test system: Rattus norvegicus; experiment: Antiinflammatory activity against male Sprague-Dawley rat pressure ulcer model assessed as appearance of orderly arranged cells at 0.625 to 2.5% administered as ointment by Masson staining based analysis; assay type: functional, organism-based
[20] = target: T1, 3',5'-cyclic-AMP phosphodiesterase 4D; experiment: Inhibition of PDE4D (unknown origin) at 1 uM relative to control
[21] = test system: Enterococcus faecium; experiment: Antibacterial activity against Enterococcus faecium BNCC358275 assessed as reduction in bacterial colonies growth at 512 ug/ml measured after 24 hrs by agar plate method; assay type: functional, organism-based; settings: dose 512.0 µg/ml
[22] = test system: Rattus norvegicus; experiment: Antiinflammatory activity against male Sprague-Dawley rat pressure ulcer model assessed as decrease in inflammatory cells in dermis at 0.625 to 2.5% administered as ointment by H and E staining based analysis; assay type: functional, organism-based
[23] = target: cGMP-inhibited 3',5'-cyclic phosphodiesterase 3A (Homo sapiens, UniProt Q14432); experiment: Inhibition of PDE3A (unknown origin)
Sequence of cGMP-inhibited 3',5'-cyclic phosphodiesterase 3A (Q14432 whole entry): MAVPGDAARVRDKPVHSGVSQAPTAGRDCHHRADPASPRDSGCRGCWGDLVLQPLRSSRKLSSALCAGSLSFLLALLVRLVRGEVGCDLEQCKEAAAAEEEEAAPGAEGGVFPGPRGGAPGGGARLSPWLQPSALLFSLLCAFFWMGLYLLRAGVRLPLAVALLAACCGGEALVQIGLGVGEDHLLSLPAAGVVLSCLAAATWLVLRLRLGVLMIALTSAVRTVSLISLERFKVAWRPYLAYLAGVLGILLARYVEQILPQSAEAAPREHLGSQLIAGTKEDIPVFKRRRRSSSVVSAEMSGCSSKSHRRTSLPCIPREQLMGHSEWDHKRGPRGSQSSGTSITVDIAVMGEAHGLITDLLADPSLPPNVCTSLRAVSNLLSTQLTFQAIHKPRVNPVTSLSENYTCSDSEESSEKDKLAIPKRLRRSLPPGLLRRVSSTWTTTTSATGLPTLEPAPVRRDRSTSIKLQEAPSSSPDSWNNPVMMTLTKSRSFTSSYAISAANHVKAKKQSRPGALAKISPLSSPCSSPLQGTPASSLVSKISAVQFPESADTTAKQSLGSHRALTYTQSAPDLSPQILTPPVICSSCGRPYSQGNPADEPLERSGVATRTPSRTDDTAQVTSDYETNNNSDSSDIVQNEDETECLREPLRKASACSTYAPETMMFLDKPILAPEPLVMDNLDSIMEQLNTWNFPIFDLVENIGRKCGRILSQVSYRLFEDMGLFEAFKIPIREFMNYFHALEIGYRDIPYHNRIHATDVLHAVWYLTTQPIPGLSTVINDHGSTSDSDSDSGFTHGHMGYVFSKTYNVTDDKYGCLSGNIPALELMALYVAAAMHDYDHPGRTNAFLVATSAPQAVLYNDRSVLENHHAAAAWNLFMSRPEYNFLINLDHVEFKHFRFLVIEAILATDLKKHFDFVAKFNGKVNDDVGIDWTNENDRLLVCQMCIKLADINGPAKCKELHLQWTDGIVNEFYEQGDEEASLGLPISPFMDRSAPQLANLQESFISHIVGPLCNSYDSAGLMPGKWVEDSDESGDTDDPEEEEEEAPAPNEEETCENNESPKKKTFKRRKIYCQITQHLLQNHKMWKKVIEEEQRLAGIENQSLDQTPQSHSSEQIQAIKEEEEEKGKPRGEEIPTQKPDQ

[24] = Acute toxicity in male Kunming mouse assessed as effect on pathological changes in lung at 500 to 4000 mg/kg measured after 14 days by H and E staining based analysis; assay type: organism-based; settings: in vivo, 336 h, dose 500-4000 mg/kg, time 14 day
[25] = test system: RAW264.7; experiment: Antiinflammatory activity against LPS induced mouse RAW264.7 cells assessed as increase in CREB phosphorylation expression at 5 to 20 uM by immunofluorescence analysis; assay type: functional, cell-based; settings: dose 5-20 µM
[26] = test system: Rattus norvegicus; experiment: Antiinflammatory activity against male Sprague-Dawley rat pressure ulcer model assessed as increase in number of fibroblasts at 0.625 to 2.5% administered as ointment by Masson staining based analysis; assay type: functional, organism-based

Cn1c(=O)c2c(ncn2CCC(=O)NNC(=O)c2cc3nccc(-c4ccc(OC(F)F)c(OCC5CC5)c4)n3n2)n(C)c1=O
Activity [1]: Non-toxic
IC50 [2]: 0.029 µM
IC50 [3]: > 50 µM
Activity [4]: Non-toxic
IC50 [5]: 15.1 µM
Activity [6]: 78%
half-life [7]: 16.8 min
Activity [8]: inactive
Activity [9]: Active
Tmax [10]: 15 min
AUC(0-inf) [11]: 26.8 ng·h/mL
Activity [12]: Non-toxic
Activity [13]: Active
IC50 [14]: > 50 µM
IC50 [15]: 24.7 µM
AUC(0-t) [16]: 25.6 ng·h/mL
Activity [17]: Active
Vd [18]: 8.79 L/kg
Activity [19]: Active
inhibition [20]: 95.8%
Activity [21]: Active
Activity [22]: Active
IC50 [23]: > 50 µM
Activity [24]: Non-toxic
Activity [25]: Active
Activity [26]: Active
